Data as given in patent publication US20260250320A1, “LIPIDATED PEPTIDE INHIBITORS OF INTERLEUKIN-23 RECEPTOR” (Janssen Pharmaceutica NV, priority 2023, published 2026).
*1 amine or outer side, *2 acyl side, *3 side chain or, on linkers, in order; H or OH if unused. Where a SMILES comes first, the peptide text is derived from it. Bridges are numbered along the chain shown (N, C = ends). Side-chain parts run from the residue outwards. [ ]: non-standard residue; d: D form. The star is where a group is joined. ξ: configuration not given here. X41 = C[N+](C)(CCCCC*)CCOCCOCCNC(=O)COCCOCCCC(=O)CC[C@H](CC(=O)CCCCCCCCCCCCCCCCC(=O)O)C(=O)O; Me3N+CH2CH2(OCH2CH2)4CO = C[N+](C)(C)CCOCCOCCOCCOCCC(=O)*; Me3N+(CH2)2O(CH2)2O(CH2)2CO = C[N+](C)(C)CCOCCOCCC(=O)*; X28 = CC(=O)[C@H](CCC(=O)*)NC(=O)CCCCCCCCCCCCCCCCC(=O)O; PEG12 = NCCOCCOCCOCCOCCOCCOCCOCCOCCOCCOCCOCCOCCC(=O)O; Trp(7-Me) = Cc1cccc2c(C[C@H](N)C(=O)O)c[nH]c12; C20 diacid = O=C(O)CCCCCCCCCCCCCCCCCCC(=O)*; X40 = C=C(/C=N\C)C[C@H](N[*:1])C(=O)[*:2]; X6 = CN(CC[C@H](N[*:1])C(=O)[*:2])[*:3]; γGlu = O=C(O)[C@H](CCC(=O)[*:2])N[*:1]; 2Nal = N[C@@H](Cc1ccc2ccccc2c1)C(=O)O; AEF = NCCOc1ccc(C[C@H](N)C(=O)O)cc1; PEG6 = NCCOCCOCCOCCOCCOCCOCCC(=O)O; ξAEF = NCCOc1ccc(CC(N)C(=O)O)cc1; 3Pal = N[C@@H](Cc1cccnc1)C(=O)O; Lys(Me) = CNCCCC[C@H](N)C(=O)O; NMeK = CN[C@@H](CCCCN)C(=O)O; Pen = CC(C)(S)[C@H](N)C(=O)O; Thp = NC1(C(=O)O)CCOCC1; Sar = CNCC(=O)O

Columns and labels:
IL-23R = target: T1, IL-23R (Homo sapiens, UniProt Q5VWK5); experiment: IL23R Reporter Assay; type: cell-based; details: HEK293 cells containing IL-23R, IL-12Rβ1 and STAT-inducible firefly luciferase reporter; 10 ng/mL IL-23 (EC90); 5 h
T1 construct: HEK293 cells containing IL-23R, IL-12Rβ1 and a firefly luciferase reporter gene driven by a STAT-inducible promoter (Promega); host or cells: HEK293
T1 sequence (Q5VWK5 24-629): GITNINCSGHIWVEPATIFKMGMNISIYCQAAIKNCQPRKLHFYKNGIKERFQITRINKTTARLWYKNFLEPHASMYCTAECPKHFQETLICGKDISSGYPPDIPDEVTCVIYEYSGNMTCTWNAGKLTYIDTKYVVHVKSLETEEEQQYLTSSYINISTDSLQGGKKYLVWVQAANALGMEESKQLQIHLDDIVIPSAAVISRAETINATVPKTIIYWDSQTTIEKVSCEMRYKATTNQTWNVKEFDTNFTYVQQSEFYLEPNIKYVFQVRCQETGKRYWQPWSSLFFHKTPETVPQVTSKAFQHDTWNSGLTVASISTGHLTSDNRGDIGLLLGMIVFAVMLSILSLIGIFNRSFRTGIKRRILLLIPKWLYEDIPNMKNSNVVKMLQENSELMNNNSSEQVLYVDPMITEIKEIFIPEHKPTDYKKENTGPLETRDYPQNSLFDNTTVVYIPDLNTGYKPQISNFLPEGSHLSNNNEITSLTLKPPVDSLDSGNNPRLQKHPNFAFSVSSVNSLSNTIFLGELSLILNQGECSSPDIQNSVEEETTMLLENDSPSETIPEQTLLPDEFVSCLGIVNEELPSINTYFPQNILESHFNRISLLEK
Summary of the method: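 HEK293 cells carrying IL-23R, IL-12Rβ1 and a STAT-driven firefly luciferase reporter (4000 cells/well) received compound, then 10 ng/mL IL-23 solution (EC90), and were incubated for 5 h at 37° C. BioGlo luminescence was normalised to IL-23 alone (0%) and 30 μM control inhibitor (100%). IC50 came from a 4-parameter Hill fit.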

[1] = system: IL-23-stimulated phosphorylated STAT3 in peripheral blood mononuclear cells (PBMCs); experiment: PBMC pSTAT3 Assay; type: cell-based; details: PBMCs from healthy donors; 30 min preincubation with peptide; IL-23 5 ng/mL for 30 min; phospho-STAT3 by MSD
Summary of the method: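 Healthy-donor PBMCs expanded 4 days on anti-CD3 with 100 ng/mL IL-1β, starved ~4 h in RPMI-0.1% BSA, preincubated 30 min with peptide, then stimulated 30 min at 37 °C with 5 ng/mL IL-23. Lysate pSTAT3 measured by MSD phospho-STAT panel; IC50 derived.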

Compound | IC50 (IL-23R) [µM] | IC50 [1] [µM]
CC(=O)N(C)CCCC[C@@H]1NC(=O)[C@H](Cc2c[nH]c3c(C)cccc23)NC(=O)[C@H]([C@@H](C)O)NC(=O)[C@H](CC(=O)N(C)C)NC(=O)[C@@H](NC(=O)CCOCCOCC[N+](C)(C)C)C(C)(C)SSC(C)(C)[C@@H](C(=O)N[C@@H](Cc2ccc(OCCCCC[N+](C)(C)CCOCCOCCNC(=O)COCCOCCCC(=O)CC[C@H](CC(=O)CCCCCCCCCCCCCCCCC(=O)O)C(=O)O)cc2)C(=O)N[C@@H](Cc2ccc3ccccc3c2)C(=O)NC2(C(=O)N[C@@H](CCCCN(C)C(C)=O)C(=O)N[C@@H](CC(N)=O)C(=O)N[C@@H](Cc3cccnc3)C(=O)N(C)CC(=O)N(C)C)CCOCC2)NC1=O [compound 144, cPEG3aCO-Pen(3)-N(N(Me)2)-T-7MeW-K(NMeAc)-Pen(3)-TMAPF(PEG2PEG2gEC18OH)-2Nal-THP-K(NMeAc)-N-3Pya-Sar-CON(Me)2] ({Me3N+(CH2)2O(CH2)2O(CH2)2CO}-[Pen]D(NMe2)T[Trp(7-Me)][Lys(Me)](Ac)[Pen]Y(X41)[2Nal][Thp][Lys(Me)](Ac)N[3Pal][Sar]-NMe2; disulfide 1-6) | < 0.05 | 0.0005 to 0.005
CC(=O)[C@H](CCC(=O)NCCOCCOCCOCCOCCOCCOCCC(=O)NCCCC[C@@H](C(N)=O)N(C)C(=O)[C@H](Cc1cccnc1)NC(=O)[C@H](CC(N)=O)NC(=O)[C@H](CCC(=O)O)NC(=O)C1(NC(=O)[C@H](Cc2ccc3ccccc3c2)NC(=O)C(Cc2ccc(OCCN)cc2)NC(=O)[C@H]2NC(=O)[C@H](CCN(C)C(=O)CCOCCOCCOCCOCC[N+](C)(C)C)NC(=O)[C@H](Cc3c[nH]c4c(C)cccc34)NC(=O)[C@H]([C@@H](C)O)NC(=O)[C@H](CC(=O)N(C)C)NC(=O)[C@@H](NC(=O)CCOCCOCCOCCOCC[N+](C)(C)C)C(C)(C)SSC2(C)C)CCOCC1)NC(=O)CCCCCCCCCCCCCCCCC(=O)O (some centres unmarked) [compound 90, cPEG5aCO-Pen(3)-N(N(Me)2)-T-7MeW-Dab(NMecPEG5a)-Pen(3)-AEF-2Nal-THP-E-N-3Pya-NMeK(PEG6gEC18OH)-CONH2] ({Me3N+CH2CH2(OCH2CH2)4CO}-[Pen]D(NMe2)T[Trp(7-Me)][X6](Me3N+CH2CH2(OCH2CH2)4CO)[Pen][ξAEF][2Nal][Thp]EN[3Pal][NMeK]([PEG6-X28])-NH2; disulfide 1-6) | 0.05 to 0.5 | < 0.0005
C=C(/C=N\C)C[C@H](NC(=O)[C@H](CC(N)=O)NC(=O)[C@H](CCC(=O)O)NC(=O)C1(NC(=O)[C@H](Cc2ccc3ccccc3c2)NC(=O)[C@H](Cc2ccc(OCCN)cc2)NC(=O)[C@H]2NC(=O)[C@H](CCCCNC(C)=O)NC(=O)[C@H](Cc3c[nH]c4c(C)cccc34)NC(=O)[C@H]([C@@H](C)O)NC(=O)[C@H](CC(N)=O)NC(=O)[C@@H](NC(=O)[C@@H](CCCCNC(=O)CCOCCOCCOCCOCCOCCOCCOCCOCCOCCOCCOCCOCCNC(=O)CC[C@H](NC(=O)CCCCCCCCCCCCCCCCCCC(=O)O)C(=O)O)NC(C)=O)C(C)(C)SSC2(C)C)CCOCC1)C(=O)N(C)CC(N)=O [compound 26, MeCO-k(PEG12gEC20OH)-Pen(3)-N-T-7MeW-K(Ac)-Pen(3)-AEF-2Nal-THP-E-N-3Pya-Sar-CONH2] (Ac-[dK]([PEG12-γGlu-C20 diacid])[Pen]NT[Trp(7-Me)]K(Ac)[Pen][AEF][2Nal][Thp]EN[X40][Sar]-NH2; disulfide 2-7) | < 0.05 | < 0.0005
CC(=O)NCCCC[C@@H]1NC(=O)[C@H](CC2CNc3c(C)cccc32)NC(=O)[C@H]([C@@H](C)O)NC(=O)[C@H](CC(N)=O)NC(=O)[C@@H](NC(=O)CCOCCOCC[N+](C)(C)C)C(C)(C)SSC(C)(C)[C@@H](C(=O)N[C@@H](Cc2ccc(OCCN)cc2)C(=O)N[C@@H](Cc2ccc3ccccc3c2)C(=O)NC2(C(=O)N[C@@H](CCCCNC(=O)COCCOCCNC(=O)COCCOCCNC(=O)CC[C@H](NC(=O)CCCCCCCCCCCCCCCCC(=O)O)C(=O)O)C(=O)N[C@@H](CC(N)=O)C(=O)N[C@@H](Cc3cccnc3)C(=O)N(C)CC(N)=O)CCOCC2)NC1=O (stereo partly drawn) [compound 78, cPEG3aCO-Pen(3)-N-T-7MeW-K(Ac)-Pen(3)-AEF-2Nal-THP-K(PEG2PEG2gEC18OH)-N-3Pya-Sar-CONH2] | 0.05 to 0.5 | < 0.0005
